ChEMBL document CHEMBL1201862, “PubChem BioAssay data set” (2004)
Active and inactive are the calls of the source.

What was measured:
[1] = molecular target: Lysine-specific demethylase 4A (Homo sapiens, UniProt O75164); assay: JMJD2A histone demethylase inhibitors, dose response, selectivity assay for GASC-1 inhibitor project, biochemical, DELFIA europium, cherry-picked samples (AID 488840)
[2] = molecular target: T1, Tyrosine-protein phosphatase non-receptor type 22 (Homo sapiens, UniProt Q9Y2R2); type: functional
T1 sequence (Q9Y2R2 whole entry): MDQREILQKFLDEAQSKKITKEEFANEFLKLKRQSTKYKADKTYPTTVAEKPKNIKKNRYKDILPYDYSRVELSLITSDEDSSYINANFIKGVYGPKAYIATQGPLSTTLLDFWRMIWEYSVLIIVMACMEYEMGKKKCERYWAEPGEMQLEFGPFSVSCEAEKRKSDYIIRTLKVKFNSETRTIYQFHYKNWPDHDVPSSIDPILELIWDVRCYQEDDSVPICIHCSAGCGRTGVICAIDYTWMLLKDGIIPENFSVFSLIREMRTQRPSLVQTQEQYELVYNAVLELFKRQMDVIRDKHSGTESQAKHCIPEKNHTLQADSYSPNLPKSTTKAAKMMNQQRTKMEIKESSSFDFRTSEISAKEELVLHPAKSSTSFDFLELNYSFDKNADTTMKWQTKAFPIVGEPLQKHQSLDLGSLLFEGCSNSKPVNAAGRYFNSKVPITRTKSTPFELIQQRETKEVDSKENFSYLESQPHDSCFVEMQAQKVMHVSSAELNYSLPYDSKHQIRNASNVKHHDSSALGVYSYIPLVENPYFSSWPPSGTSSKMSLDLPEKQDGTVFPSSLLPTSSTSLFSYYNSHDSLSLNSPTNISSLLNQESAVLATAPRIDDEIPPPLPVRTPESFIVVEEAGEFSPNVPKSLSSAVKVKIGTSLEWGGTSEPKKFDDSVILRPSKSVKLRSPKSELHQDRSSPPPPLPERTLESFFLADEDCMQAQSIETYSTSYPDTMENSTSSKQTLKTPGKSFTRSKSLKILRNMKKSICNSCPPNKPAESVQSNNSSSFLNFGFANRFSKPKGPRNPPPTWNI

[3] = molecular target: T1, Tyrosine-protein phosphatase non-receptor type 22; type: functional; remark: listed apart in the source
[4] = molecular target: T2, Tyrosine-protein phosphatase non-receptor type 7 (Homo sapiens, UniProt P35236); type: functional
T2 sequence (P35236 whole entry): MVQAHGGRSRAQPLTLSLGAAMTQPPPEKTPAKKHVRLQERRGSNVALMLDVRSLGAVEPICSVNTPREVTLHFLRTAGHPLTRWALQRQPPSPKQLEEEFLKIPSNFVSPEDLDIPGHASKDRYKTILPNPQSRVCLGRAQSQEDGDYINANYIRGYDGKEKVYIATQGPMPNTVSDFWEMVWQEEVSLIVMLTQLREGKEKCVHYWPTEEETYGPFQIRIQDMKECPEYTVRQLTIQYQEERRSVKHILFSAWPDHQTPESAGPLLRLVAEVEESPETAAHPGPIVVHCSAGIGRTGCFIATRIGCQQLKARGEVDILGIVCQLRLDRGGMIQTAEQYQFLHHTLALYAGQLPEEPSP

[5] = molecular target: Voltage-gated inwardly rectifying potassium channel KCNH2 (Homo sapiens, UniProt Q12809); settings: Potency;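 also: confirmatory quantitative high-throughput screen measuring inhibition of hERG channel activity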
Voltage-gated inwardly rectifying potassium channel KCNH2, sequence (Q12809 whole entry): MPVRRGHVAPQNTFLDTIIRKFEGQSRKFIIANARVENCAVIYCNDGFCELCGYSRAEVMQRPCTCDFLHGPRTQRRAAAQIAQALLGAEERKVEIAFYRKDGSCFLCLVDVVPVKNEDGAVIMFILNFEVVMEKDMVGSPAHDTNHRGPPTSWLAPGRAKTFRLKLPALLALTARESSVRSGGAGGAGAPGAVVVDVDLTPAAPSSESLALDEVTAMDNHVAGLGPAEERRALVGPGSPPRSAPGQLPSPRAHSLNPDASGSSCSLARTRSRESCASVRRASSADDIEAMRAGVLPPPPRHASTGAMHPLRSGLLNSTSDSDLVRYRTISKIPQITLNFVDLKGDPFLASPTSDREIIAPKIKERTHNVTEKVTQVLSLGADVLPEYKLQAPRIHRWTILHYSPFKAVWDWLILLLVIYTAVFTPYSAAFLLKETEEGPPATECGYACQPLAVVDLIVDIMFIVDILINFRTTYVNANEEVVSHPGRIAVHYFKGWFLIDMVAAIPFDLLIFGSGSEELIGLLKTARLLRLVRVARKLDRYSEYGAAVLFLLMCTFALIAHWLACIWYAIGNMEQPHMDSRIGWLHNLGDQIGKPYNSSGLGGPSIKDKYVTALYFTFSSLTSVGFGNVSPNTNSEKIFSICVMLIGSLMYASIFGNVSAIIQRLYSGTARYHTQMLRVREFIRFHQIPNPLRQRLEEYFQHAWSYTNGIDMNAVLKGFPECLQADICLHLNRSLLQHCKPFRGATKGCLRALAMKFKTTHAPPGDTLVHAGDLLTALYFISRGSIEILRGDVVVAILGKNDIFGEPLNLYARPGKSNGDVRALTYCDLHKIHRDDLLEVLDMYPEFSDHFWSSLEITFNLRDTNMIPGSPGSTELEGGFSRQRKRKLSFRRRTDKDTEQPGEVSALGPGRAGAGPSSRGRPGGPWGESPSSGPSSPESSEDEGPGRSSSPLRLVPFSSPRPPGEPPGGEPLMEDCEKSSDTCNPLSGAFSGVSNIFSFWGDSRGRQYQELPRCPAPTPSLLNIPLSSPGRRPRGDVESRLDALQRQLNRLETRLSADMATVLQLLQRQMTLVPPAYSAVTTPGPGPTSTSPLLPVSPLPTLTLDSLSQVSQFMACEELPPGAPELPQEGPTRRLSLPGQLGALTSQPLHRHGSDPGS

Cytochrome P450 3A4 = Cytochrome P450 3A4 (Homo sapiens, UniProt P08684); settings: Potency;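 also: confirmatory qHTS run detecting inhibitors and substrates of CYP3A4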
Streptococcus = assay: Group A Streptococcus viability loss, dose response, counter-screen for streptokinase expression inhibitor project, luminescence, BacTiterGlo (AID 1915); type: functional, organism-based;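 also: potency for reduction of bacterial viability or growth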
Escherichia coli = assay: microbe, parasite or virus in culture
Streptokinase A = molecular target: T3, Streptokinase A (Streptococcus pyogenes serotype M1, UniProt P10520); assay: S. pyogenes streptokinase expression inhibitors, potency, dose response, plasminogen activation absorbance, OD405 (AID 1914); type: functional, Streptococcus pyogenes M1 GAS;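 also: secreted streptokinase activity via plasminogen activation per viability signal from cell pellet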
T3 sequence (P10520 whole entry): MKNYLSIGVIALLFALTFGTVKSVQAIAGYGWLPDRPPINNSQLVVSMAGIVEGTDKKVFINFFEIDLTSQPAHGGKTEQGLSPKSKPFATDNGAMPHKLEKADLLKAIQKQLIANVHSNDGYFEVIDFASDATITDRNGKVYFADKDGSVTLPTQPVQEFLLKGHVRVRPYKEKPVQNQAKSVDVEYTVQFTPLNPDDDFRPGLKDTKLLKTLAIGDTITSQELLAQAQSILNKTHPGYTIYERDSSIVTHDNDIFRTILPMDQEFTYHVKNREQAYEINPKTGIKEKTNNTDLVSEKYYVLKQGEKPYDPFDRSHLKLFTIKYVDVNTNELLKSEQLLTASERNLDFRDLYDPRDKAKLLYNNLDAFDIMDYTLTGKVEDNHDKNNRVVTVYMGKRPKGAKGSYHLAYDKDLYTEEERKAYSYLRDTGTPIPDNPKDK

[6] = molecular target: T4, Heat shock factor protein 1 (Mus musculus, UniProt P38532); assay: inhibition of MG132-induced HSE-luciferase signal, confirmation, cell-based, NIH3T3, luminescence, dose retest (AID 2382); type: functional;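 also: NIH3T3 fibroblasts with HSF1-driven luciferase reporter stressed by proteasome inhibitor MG132; luminescence from HSF1-driven luciferase expression after 8 hours of MG132 stress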
T4 sequence (P38532 whole entry): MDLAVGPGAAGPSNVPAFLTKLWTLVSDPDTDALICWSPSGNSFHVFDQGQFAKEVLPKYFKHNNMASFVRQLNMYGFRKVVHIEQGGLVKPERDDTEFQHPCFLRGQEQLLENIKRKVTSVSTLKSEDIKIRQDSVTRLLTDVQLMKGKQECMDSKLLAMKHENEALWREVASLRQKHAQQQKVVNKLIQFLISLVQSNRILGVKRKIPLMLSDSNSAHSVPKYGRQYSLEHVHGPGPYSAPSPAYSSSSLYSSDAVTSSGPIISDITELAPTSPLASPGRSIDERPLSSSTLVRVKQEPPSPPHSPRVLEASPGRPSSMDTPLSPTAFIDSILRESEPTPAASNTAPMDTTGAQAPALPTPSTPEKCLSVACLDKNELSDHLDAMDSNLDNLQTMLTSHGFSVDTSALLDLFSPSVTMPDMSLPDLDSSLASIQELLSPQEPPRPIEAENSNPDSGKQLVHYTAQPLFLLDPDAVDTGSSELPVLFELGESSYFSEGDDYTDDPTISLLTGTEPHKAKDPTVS

[7] = test system: Streptococcus sp. 'group A'; assay: growth inhibition of control SK(-) GAS strain, dose response, counter-screen for streptokinase expression inhibitor project, luminescence, kanamycin, BacTiterGlo, confirmation (AID 1900); type: functional, organism-based
[8] = molecular target: T5, Mannose-6-phosphate isomerase (Homo sapiens, UniProt P34949); assay: PMI enzyme inhibitors, confirmation, biochemical, fluorescence intensity (AID 1535)
T5 sequence (P34949 whole entry): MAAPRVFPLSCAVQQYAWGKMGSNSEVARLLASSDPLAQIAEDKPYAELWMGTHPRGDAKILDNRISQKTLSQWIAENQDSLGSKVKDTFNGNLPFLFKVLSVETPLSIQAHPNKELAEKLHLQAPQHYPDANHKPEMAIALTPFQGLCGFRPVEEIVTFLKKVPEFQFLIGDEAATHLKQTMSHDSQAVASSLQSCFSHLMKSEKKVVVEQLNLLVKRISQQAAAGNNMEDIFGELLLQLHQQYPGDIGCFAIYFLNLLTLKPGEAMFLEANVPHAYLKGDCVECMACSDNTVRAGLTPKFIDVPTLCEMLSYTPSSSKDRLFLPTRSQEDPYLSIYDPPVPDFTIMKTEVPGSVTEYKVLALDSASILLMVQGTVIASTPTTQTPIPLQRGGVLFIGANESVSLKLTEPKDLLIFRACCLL

Phosphomannomutase 2 = Phosphomannomutase 2 (Homo sapiens, UniProt O15305); assay: Counter screen SAR assay for PMM2 inhibitors via a fluorescence intensity assay. [Related pubchem assays (depositor defined):AID1545, AID1574]
Phosphomannomutase 2, sequence (O15305 whole entry): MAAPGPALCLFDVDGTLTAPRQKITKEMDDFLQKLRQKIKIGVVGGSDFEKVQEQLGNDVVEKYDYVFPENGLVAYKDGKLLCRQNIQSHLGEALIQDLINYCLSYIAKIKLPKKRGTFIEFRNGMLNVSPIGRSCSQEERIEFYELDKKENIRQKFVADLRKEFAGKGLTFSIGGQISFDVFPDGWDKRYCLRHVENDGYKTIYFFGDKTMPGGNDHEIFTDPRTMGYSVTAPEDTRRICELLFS

[9] = molecular target: T6, Voltage-gated N-type calcium channel alpha-1B subunit/Amyloid beta A4 precursor protein-binding family A member 1 (Homo sapiens, UniProt Q00975+Q02410); type: protein assay
T6 sequence (Q00975 whole entry): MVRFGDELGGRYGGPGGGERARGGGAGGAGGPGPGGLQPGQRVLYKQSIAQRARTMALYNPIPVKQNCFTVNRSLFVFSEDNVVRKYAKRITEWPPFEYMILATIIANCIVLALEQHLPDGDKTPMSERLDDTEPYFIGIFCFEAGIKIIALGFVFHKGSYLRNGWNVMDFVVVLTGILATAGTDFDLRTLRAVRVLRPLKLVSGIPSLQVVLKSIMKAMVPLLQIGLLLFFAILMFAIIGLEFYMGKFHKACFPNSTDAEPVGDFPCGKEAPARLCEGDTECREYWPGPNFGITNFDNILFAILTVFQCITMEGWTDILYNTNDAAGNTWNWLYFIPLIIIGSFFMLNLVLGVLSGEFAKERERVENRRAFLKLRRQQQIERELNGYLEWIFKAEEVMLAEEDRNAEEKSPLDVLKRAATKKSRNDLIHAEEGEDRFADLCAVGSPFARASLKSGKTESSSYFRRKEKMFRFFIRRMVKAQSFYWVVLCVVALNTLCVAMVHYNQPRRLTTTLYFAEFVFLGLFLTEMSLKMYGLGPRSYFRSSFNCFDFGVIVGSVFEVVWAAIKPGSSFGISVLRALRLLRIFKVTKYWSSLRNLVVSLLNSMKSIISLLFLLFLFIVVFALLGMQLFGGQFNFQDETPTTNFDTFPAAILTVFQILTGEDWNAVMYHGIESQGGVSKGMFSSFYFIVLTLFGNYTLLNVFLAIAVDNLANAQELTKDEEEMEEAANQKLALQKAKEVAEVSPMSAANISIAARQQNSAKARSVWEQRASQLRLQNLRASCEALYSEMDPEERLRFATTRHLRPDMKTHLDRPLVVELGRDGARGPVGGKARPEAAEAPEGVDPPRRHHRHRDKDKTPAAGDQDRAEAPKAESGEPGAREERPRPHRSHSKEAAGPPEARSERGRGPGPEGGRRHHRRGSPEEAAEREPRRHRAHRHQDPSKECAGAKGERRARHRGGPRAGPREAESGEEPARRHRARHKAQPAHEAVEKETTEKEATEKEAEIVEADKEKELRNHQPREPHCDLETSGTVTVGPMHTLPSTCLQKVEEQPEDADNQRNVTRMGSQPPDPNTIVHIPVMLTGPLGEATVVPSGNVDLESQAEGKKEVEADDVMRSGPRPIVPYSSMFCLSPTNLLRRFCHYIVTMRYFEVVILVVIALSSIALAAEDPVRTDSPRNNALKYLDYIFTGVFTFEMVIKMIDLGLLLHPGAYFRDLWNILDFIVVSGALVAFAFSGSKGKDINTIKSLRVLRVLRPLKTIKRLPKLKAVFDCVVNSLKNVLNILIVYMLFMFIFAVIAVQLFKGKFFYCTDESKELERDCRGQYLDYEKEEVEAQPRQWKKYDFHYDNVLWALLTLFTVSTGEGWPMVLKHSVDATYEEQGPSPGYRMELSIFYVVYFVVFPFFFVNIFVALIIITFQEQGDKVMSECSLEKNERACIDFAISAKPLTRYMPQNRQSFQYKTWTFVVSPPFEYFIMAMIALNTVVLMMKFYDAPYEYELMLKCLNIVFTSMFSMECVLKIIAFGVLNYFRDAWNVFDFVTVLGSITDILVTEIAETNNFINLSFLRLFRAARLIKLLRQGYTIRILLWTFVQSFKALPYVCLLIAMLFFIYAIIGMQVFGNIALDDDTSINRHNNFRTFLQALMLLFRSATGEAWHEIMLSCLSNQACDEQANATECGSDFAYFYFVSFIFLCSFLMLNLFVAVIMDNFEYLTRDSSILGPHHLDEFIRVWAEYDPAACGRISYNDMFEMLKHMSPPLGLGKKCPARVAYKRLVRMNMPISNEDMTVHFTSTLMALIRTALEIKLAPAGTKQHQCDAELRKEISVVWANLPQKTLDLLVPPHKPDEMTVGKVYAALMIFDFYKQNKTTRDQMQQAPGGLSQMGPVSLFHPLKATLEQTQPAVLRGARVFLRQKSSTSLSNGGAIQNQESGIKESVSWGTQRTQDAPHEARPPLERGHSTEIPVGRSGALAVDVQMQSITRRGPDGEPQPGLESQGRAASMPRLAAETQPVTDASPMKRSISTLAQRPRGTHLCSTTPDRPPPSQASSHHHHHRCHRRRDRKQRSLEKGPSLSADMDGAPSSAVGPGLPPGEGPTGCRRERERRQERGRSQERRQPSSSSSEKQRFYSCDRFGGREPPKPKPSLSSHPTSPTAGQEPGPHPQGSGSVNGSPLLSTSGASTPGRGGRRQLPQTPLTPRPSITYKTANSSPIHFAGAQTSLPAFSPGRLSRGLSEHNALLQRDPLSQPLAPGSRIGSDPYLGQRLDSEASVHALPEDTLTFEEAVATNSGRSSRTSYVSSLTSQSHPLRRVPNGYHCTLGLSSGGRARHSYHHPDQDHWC
T6 sequence (Q02410 whole entry): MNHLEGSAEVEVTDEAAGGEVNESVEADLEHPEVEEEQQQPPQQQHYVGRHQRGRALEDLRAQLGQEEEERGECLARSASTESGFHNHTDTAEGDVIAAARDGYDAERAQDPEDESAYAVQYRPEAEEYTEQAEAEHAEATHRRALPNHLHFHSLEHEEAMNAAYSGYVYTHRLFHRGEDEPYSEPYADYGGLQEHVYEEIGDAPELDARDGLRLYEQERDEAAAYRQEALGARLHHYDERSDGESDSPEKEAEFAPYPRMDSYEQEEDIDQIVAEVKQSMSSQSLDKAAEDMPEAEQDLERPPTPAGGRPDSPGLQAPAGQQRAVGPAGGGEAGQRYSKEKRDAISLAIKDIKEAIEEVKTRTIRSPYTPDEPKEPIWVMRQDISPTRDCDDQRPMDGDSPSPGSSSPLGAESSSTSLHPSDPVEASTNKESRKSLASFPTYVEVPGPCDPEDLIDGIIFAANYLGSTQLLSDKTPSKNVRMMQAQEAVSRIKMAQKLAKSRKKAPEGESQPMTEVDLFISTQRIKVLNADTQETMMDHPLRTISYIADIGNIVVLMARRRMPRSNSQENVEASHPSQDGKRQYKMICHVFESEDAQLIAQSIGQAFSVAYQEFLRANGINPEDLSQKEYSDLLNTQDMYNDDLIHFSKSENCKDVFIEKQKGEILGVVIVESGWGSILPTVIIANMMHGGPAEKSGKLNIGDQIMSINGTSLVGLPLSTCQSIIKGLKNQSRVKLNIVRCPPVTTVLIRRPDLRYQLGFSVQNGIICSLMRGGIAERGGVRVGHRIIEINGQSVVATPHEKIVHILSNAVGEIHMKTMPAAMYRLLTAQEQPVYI

[10] = molecular target: T6, Voltage-gated N-type calcium channel alpha-1B subunit/Amyloid beta A4 precursor protein-binding family A member 1; type: protein assay; remark: listed apart in the source
[11] = molecular target: Eukaryotic translation initiation factor 4E (Mus musculus, UniProt P63073); assay: eIF4E–eIF4G protein interaction inhibitors, dose response, biochemical, TR-FRET (AID 855); type: functional;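 also: potency for disrupting eIF4E binding to eIF4GI seen as loss of FRET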
Eukaryotic translation initiation factor 4E, sequence (P63073 whole entry): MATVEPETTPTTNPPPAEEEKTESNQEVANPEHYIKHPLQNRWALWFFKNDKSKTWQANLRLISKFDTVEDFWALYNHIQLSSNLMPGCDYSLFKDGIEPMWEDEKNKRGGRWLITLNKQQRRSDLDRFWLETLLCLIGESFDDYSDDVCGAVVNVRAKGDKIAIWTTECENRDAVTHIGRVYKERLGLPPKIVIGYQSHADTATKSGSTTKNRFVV

SMILES: Cc1ccccc1Cn1c2ccccc2c2cnnc(O)c21
- AC50 [1]: 30.2 µM (active)

SMILES: C/C(=N\NC(=O)c1c(-c2ccccc2Cl)noc1C)c1cccc(NC(=O)C(C)C)c1
- IC50 [2]: > 79.4 µM (inactive)
- IC50 [3]: > 79.4 µM (inactive)
- IC50 [4]: > 79.4 µM (inactive)

SMILES: CC(C)(c1ccccc1)c1ccc(O)cc1
- AC50 [5]: 28.2 µM (inconclusive)
- AC50 (Cytochrome P450 3A4): 20 µM (inconclusive)

SMILES: N#Cc1nc(-c2ccccc2Cl)oc1N1CCN(C(=O)c2ccco2)CC1
- EC50 (Streptococcus): > 150 µM (not active)
- AC50 (Escherichia coli): 23.9 µM (active)
- EC50 (Streptokinase A): > 150 µM (not active)
- EC50 [6]: > 195 µM (not active)
- EC50 [7]: > 150 µM (not active)

SMILES: O=[N+]([O-])c1cc([N+](=O)[O-])c2ccccc2c1
- AC50 [5]: 15.8 µM (inconclusive)

SMILES: Clc1nss/c1=N\c1ccccc1
- IC50 [8]: 15.7 µM (active)
- IC50 (Phosphomannomutase 2): > 100 µM (inactive)
- IC50 [9]: 8.44 µM (active)
- IC50 [10]: 8.07 µM (active)
- IC50 [11]: 50 µM (inactive)

SMILES: O=[N+]([O-])c1ccc(/N=c2\ssnc2Cl)cc1
- IC50 [8]: 23 µM (active)
- IC50 (Phosphomannomutase 2): > 100 µM (inactive)
